Series [1] has as its system swollen ear model. The series can be described thus: Anti-inflammatory effect: xylene-induced swollen ear model. The class given is in vivo, ICR mice. Particulars: 40 mg/kg, intragastric, xylene on right ear 30 min after administration; weight ratio swollen ear to normal ear; n 8-10. How it is done:
Male or female healthy ICR mice, each weighing 18-20 g, were grouped randomly into model, positive control and test groups based on body weight, with 8-10 animals for each group. The positive group was treated by hydrocortisone in a dose of 40 mg/kg of body weight.
The compound of formula I to be tested was administered intragastrically at a concentration of 2 mg/ml in a 1% CMCNa solution, while a 1% CMCNa solution alone was administered to the model group in the same amount. 30 min after administration, 50 μl of xylene solution was added dropwise into the right ear of each mouse to cause an inflammation reaction. 30 min later, the mice were killed by breaking the cervical vertebrae. Both ears were excised immediately from the mices, and punched in the same position with a puncher having a diameter of 0.6 cm. The obtained ear piece was weighed. For each mouse, the weight ratio of swollen ear to normal ear was regarded as an indication for the degree of swelling. Biostatistical analysis was performed using the Student's t test.

Series [2] relates to writhing response. The series can be described thus: Analgesic effect: acetic acid-induced writhing response. The format is in vivo, ICR mice. Particulars: 50 mg/kg intragastric; for Writhing occurrence (x ± s): 0.6% acetic acid i.p. 1 h after administration, counted during 15 minutes, n = 10. How it is done: Male or female healthy ICR mice, each weighing 18-22 g, were used. Each mouse was injected intraperitoneally with 0.6% acetic acid in a dose of 0.2 ml one day before the test. The mice with the writhing response occurring in the range of 10-50 times were selected. The selected mice were grouped randomly into model, positive control and test groups based on the occurrence of the writhing response, with 10 animals for each group. The positive group was treated with aspirin in a dose of 50 mg/kg of body weight.
After fasting for at least 12 h, the animals were intragastrically administrated: the animals in model group are administered only with 1% CMCNa in the same amount. 1 h after administration, the mice were intraperitoneally injected with 0.6% acetic acid in a dose of 0.2 ml per animal. After 5 min, the occurrence of the writhing responses for one mouse was recorded during a period of 15 minutes. Based on the occurrence recorded, the inhibition rate of the active ingredient for writhing response was calculated. Inhibition rate=(means of the writhing occurrence for model group−means of the writhing occurrence for test group)/means of writhing occurrence for model group×100%. (3) Cough-prevention
Background: An intraperitoneal irritant provokes the stretching counted in writhing tests.

The subject of series [3] is cough. As to the kind of experiment: Cough-prevention: ammonia-induced cough. The class given is in vivo, ICR mice. Particulars: for Cough occurrence (x ± sd) / Inhibition rate of cough (%): 50 mg/kg intragastric; for Cough occurrence (x ± sd): ammonia 1 h after administration, observed within 5 min, n = 10; for Inhibition rate of cough (%): versus model group. How it is done:
Male or female healthy ICR mice, each weighing 18-22 g, were used. They were grouped randomly into model, positive control and test groups based on body weight, with 10 animals for each group. The positive group was treated by codeine phosphate in a dose of 50 mg/kg of body weight.
After fasting for at least 12 h, the animals were intragastrically administrated: the animals in model group are administered only with 1% CMCNa in the same amount. To start the test, 1 h after administration, the mice were placed in a 500 ml container, into which a cotton ball sucking 0.3 ml of ammonia was added to cause coughing. The occurrence of cough was observed within 5 min. Inhibition rate of cough=(the cough occurrence for model group−the cough occurrence for test group)/the cough occurrence for model group×100%. (4) Aldosterone-like Side Effects

Series [4] relates to Influenza virus A. As to the kind of experiment: Influenza virus A-infected mice models. The format is in vivo. As to conditions: 100 mg/kg.
For series [5], the system named is aldosterone. The format is in vivo. Particulars: subacute toxicity study. Here is the method: (§1) Three compounds of formula I of the invention were selected to examine their subacute toxicity within one month, with dexamethasone and glycyrrhetinic acid as control. […] Furthermore, the level of aldosterone in blood plasma was determined. The level will decrease in a negative feedback way when an agent having aldosterone-like effects is administrated.

The nature of series [6]: Subacute toxicity within one month (death). The class given is in vivo. As to conditions: 300 mg/kg of body weight for one week. How it is done:
as §1

Series [7] concerns paracetamol/hepatitis mice models. The series can be described thus: Liver protection in paracetamol/hepatitis mice models. As to conditions: 100 mg/kg.

On to `Cc1ccc(-c2cc(CNC(=O)C3(C)CCC4(C)CCC5(C)C(=CC(=O)C6C7(C)CCC(O)C(C)(C)C7CCC65C)C4C3)on2)cc1` (stereo not shown) [Compound G2, N-[(3-p-methylphenyl-isoxazol-5-yl)methyl]-glycyrrhetinamide], for which the “Swelling degree of the swollen ear model (%) (x ± sd)” value (from here on “Swelling degree … (%) (x ± sd)”) in series [1] was 68.6 ± 29.5 %.
Take `Cc1ccc(-c2cc(CNC(=O)[C@@]3(C)CC[C@]4(C)CC[C@]5(C)C(=CCC6[C@@]7(C)CC[C@H](O)C(C)(C)C7CC[C@]65C)[C@@H]4C3)on2)cc1` (stereo partly shown) [DG2, N-[(3-p-methylphenyl-isoxazol-5-yl)methyl]-11-deoxy-glycyrrhetinamide]: the “Swelling degree … (%) (x ± sd)” value in series [1] worked out at 80.2 ± 18.8 %.
With `CC1(C(=O)NCc2cc(-c3ccc(O)cc3)no2)CCC2(C)CCC3(C)C(=CC(=O)C4C5(C)CCC(O)C(C)(C)C5CCC43C)C2C1` (stereo not shown) [Compound G1, N-[(3-p-hydroxylphenyl-isoxazol-5-yl)methyl]-glycyrrhetinamide], in series [2], the “Writhing occurrence (x ± s)” value amounted to 16.33 ± 10.57. Also, the “Inhibition rate of writhing response (%)” value in series [2] (versus model group) is on record as 19.7%. For the same molecule, in series [3], the “Cough occurrence (x ± sd)” value came to 28.20 ± 15.39 and the “Inhibition rate of cough (%)” value is recorded as −1.44%.
Turning to `CC1(C)[C@@H](O)CC[C@]2(C)[C@H]3CC=C4[C@@H]5C[C@@](C)(C(=O)NCc6cc(-c7ccccc7Cl)no6)CC[C@]5(C)CC[C@@]4(C)[C@]3(C)CC[C@@H]12` [DG4, N-[(3-o-chlorophenyl-isoxazol-5-yl)methyl]-11-deoxy-glycyrrhetinamide], in series [4], the “Death rate caused by the virus infection” value is “decreased”. For the same molecule, the “Writhing occurrence (x ± s)” value in series [2] stood at 6.56 ± 6.19. Moreover, the “Inhibition rate of writhing response (%)” value in series [2] (versus model group) turned out to be 67.8%. Besides, in series [3], the “Cough occurrence (x ± sd)” value came out at 18.80 ± 7.04 and the “Inhibition rate of cough (%)” value was 32.37%.
In the case of `COc1ccccc1-c1cc(CNC(=O)C2(C)CCC3(C)CCC4(C)C(=CC(=O)C5C6(C)CCC(O)C(C)(C)C6CCC54C)C3C2)on1` (stereo not shown) [Compound G6, N-[(3-o-methoxyphenyl-isoxazol-5-yl)methyl]-glycyrrhetinamide], in series [1], the “Swelling degree … (%) (x ± sd)” value is 53.4 ± 35.2 %.
Take `CC1(C)[C@@H](O)CC[C@]2(C)[C@H]3C(=O)C=C4[C@@H]5C[C@@](C)(C(=O)O)CC[C@]5(C)CC[C@@]4(C)[C@]3(C)CC[C@@H]12` [glycyrrhetinic acid]: the “Aldosterone level in blood plasma (ng/ml) (x ± sd)” value in series [5] (300 mg/kg, n = 8) was 68.3 ± 12.5 ng/mL. Also, the “Aldosterone-like effects (decrease of plasma aldosterone by negative feedback)” value in series [5] is “confirmed the aldosterone-like effects”. Also, in series [6], the “Death in subacute toxicity test” value was “no death was observed”.
As to `COc1ccc2c3c1O[C@H]1[C@@H](O)C=C[C@H]4[C@@H](C2)N(C)CC[C@@]341` [codeine phosphate, reference compound], in series [3], the “Cough occurrence (x ± sd)” value is 8.40 ± 8.95. For the same molecule, in series [3] (Mus musculus, po, read-out: Inhibition rate of cough (%)), the inhibition at 50 mg/kg was 69.8%.
In the case of `CC1(C(=O)NCc2cc(-c3cccc(Cl)c3)no2)CCC2(C)CCC3(C)C(=CCC4C5(C)CCC(O)C(C)(C)C5CCC43C)C2C1` (stereo not shown) [DG8, N-[(3-m-chlorophenyl-isoxazol-5-yl)methyl]-11-deoxy-glycyrrhetinamide], the “Writhing occurrence (x ± s)” value in series [2] is 15.89 ± 16.67. Moreover, the “Inhibition rate of writhing response (%)” value in series [2] (versus model group) is recorded as 21.9%. In addition, in series [3], the “Cough occurrence (x ± sd)” value turned out to be 17.90 ± 8.21 and the “Inhibition rate of cough (%)” value is on record as 35.61%.
With `C[C@@H]1C[C@H]2[C@@H]3CCC4=CC(=O)C=C[C@]4(C)[C@@]3(F)[C@@H](O)C[C@]2(C)[C@@]1(O)C(=O)CO` [dexamethasone], the “Death in subacute toxicity test” value in series [6] is listed as “All the animals died”.
Regarding `COc1ccccc1-c1cc(CNC(=O)C2(C)CCC3(C)CCC4(C)C(=CCC5C6(C)CCC(O)C(C)(C)C6CCC54C)C3C2)on1` (stereo not shown) [DG6, N-[(3-o-methoxyphenyl-isoxazol-5-yl)methyl]-11-deoxy-glycyrrhetinamide], the GPT result in series [7] was “decreased”. In series [2], the “Writhing occurrence (x ± s)” value is 8.00 ± 6.48. Besides, the “Inhibition rate of writhing response (%)” value in series [2] (versus model group) is listed as 60.7%. Besides, in series [1], the “Swelling degree … (%) (x ± sd)” value was determined as 64.4 ± 29.2 %. For the same molecule, in series [3], the “Cough occurrence (x ± sd)” value is listed as 22.60 ± 9.56 and the “Inhibition rate of cough (%)” value turned out to be 18.71%.
For `COc1ccccc1-c1cc(CNC(=O)[C@@]2(C)CC[C@]3(C)CC[C@]4(C)C(=CC(=O)[C@@H]5[C@@]6(C)CC[C@H](OC(C)=O)C(C)(C)[C@@H]6CC[C@]54C)[C@@H]3C2)on1` [RG1, N-[(3-o-methoxyphenyl-isoxazol-5-yl)methyl]-3-acetoxy-glycyrrhetinamide], in series [3], the “Cough occurrence (x ± sd)” value amounted to 17.64 ± 6.34 and the “Inhibition rate of cough (%)” value is 36.55%.
Turning to `C[C@]12CCC(=O)C=C1CC[C@@H]1[C@@H]2[C@@H](O)C[C@@]2(C)[C@H]1CC[C@]2(O)C(=O)CO` [hydrocortisone, reference compound], the “Swelling degree … (%) (x ± sd)” value in series [1] was 55.7 ± 35.4 %.
In the case of `Cc1cc(CNC(=O)C2(C)CCC3(C)CCC4(C)C(=CCC5C6(C)CCC(O)C(C)(C)C6CCC54C)C3C2)on1` (stereo not shown) [DG7, N-[(3-methyl-isoxazol-5-yl)methyl]-11-deoxy-glycyrrhetinamide], the “Writhing occurrence (x ± s)” value in series [2] stood at 15.78 ± 12.43. For the same molecule, the “Inhibition rate of writhing response (%)” value in series [2] (versus model group) is 22.4%. In addition, in series [3], the “Cough occurrence (x ± sd)” value is 20.40 ± 14.31 and the “Inhibition rate of cough (%)” value is on record as 26.62%.
In the case of `CC(=O)Oc1ccccc1C(=O)O` [aspirin, reference compound], in series [2], the “Writhing occurrence (x ± s)” value was 5.44 ± 5.87. Moreover, the inhibition at 50 mg/kg in series [2] (Mus musculus, po, versus model group, read-out: Inhibition rate of writhing response (%)) stood at 73.2%.
Turning to `CC1(C(=O)NCc2cc(-c3ccc(F)cc3)no2)CCC2(C)CCC3(C)C(=CC(=O)C4C5(C)CCC(O)C(C)(C)C5CCC43C)C2C1` (stereo not shown) [Compound G3, N-[(3-p-fluorophenyl-isoxazol-5-yl)methyl]-glycyrrhetinamide], the “Swelling degree … (%) (x ± sd)” value in series [1] worked out at 60.8 ± 27.9 %.
Turning to `CC1(C(=O)NCc2cc(-c3ccc(F)cc3)no2)CCC2(C)CCC3(C)C(=CCC4C5(C)CCC(O)C(C)(C)C5CCC43C)C2C1` (stereo not shown) [DG3, N-[(3-p-fluorophenyl-isoxazol-5-yl)methyl]-11-deoxy-glycyrrhetinamide], the “Writhing occurrence (x ± s)” value in series [2] was 18.33 ± 13.56. Besides, the “Inhibition rate of writhing response (%)” value in series [2] (versus model group) stood at 9.8%. Further, the “Swelling degree … (%) (x ± sd)” value in series [1] is listed as 56.1 ± 28.3 %. In series [3], the “Cough occurrence (x ± sd)” value came out at 17.70 ± 7.10 and the “Inhibition rate of cough (%)” value is recorded as 36.33%.

As usually defined, the inhibition is the change of the read-out against control, counted positive when it falls.
